# Source: ChEMBL document CHEMBL1201862, “PubChem BioAssay data set” (2004)
# Activity calls are given as the source filed them. No stated cut-off is given here; in the data, actives have a measured IC50 and inactives only a lower limit.
# Target: Envelope glycoprotein gp160 (Human immunodeficiency virus 1, UniProt Q6QLK5)
# Assay: cell-free HIV fusion peptide-binding blockers – biochemical, uHTS, fluorescence dequenching, […] (AID 1986)
# Chain of Envelope glycoprotein gp160 (Q6QLK5 whole entry, the tested form may be a part): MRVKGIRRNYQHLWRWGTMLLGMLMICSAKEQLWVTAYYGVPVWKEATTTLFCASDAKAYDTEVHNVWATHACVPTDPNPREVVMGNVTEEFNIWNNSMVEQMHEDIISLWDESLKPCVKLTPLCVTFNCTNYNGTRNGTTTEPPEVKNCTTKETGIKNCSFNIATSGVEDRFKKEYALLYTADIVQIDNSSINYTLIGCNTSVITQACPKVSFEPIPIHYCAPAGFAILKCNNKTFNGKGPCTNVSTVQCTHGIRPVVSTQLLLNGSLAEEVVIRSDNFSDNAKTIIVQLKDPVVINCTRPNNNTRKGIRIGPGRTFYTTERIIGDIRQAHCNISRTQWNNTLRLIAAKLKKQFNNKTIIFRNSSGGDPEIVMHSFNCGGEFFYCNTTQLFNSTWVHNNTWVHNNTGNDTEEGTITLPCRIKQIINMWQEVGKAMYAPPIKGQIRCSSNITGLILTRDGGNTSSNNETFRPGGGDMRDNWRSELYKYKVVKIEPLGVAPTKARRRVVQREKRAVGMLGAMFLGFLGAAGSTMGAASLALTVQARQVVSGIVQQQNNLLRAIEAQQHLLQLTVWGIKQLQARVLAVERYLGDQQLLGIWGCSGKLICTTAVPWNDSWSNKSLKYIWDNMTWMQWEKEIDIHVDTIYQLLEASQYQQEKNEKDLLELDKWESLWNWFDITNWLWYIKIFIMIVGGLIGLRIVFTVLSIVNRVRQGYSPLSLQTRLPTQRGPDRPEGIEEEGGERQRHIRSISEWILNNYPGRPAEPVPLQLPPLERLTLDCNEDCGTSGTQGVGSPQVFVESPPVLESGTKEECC
compound,measurement,value
COc1cc(/C=C2\SC(=O)N(c3ccccc3Cl)C2=O)cc([N+](=O)[O-])c1O,IC50,24.7 µM (active)
